Measurements from ChEMBL document CHEMBL1201862, “PubChem BioAssay data set” (2004).
Values joined by “and” are separate entries in the source; they are usually repeats but may differ in a detail not shown here. Equal values may be shown once.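 Grown in 96-well plates, cells were treated for 48 hours with each compound at five concentrations. Insufficient inhibition: endpoint recorded as highest concentration tested. GI50: concentration for 50% inhibition of growth.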 Active and inactive are the calls of the source. No stated cut-off is given here; in the data, active = GI50 up to about 1.1 µM and inactive = higher.

Legend:
Experiment in all cases: NCI anticancer screen, dose series, 48 h
SF-295 = tested on: SF-295
UO-31 = tested on: UO-31
CCRF-CEM = tested on: CCRF-CEM
RXF 393 = tested on: RXF 393
RPMI-8226 = tested on: RPMI-8226
HCC 2998 = tested on: HCC 2998
U-251 = tested on: U-251
MOLT-4 = tested on: MOLT-4
UACC-257 = tested on: UACC-257
HT-29 = tested on: HT-29
SK-MEL-5 = tested on: SK-MEL-5
SN12C = tested on: SN12C
SK-OV-3 = tested on: SK-OV-3
IGROV-1 = tested on: IGROV-1
HL-60 = tested on: HL-60
HOP-92 = tested on: HOP-92
NCI-H226 = tested on: NCI-H226

Measured: GI50

COc1c(Sc2ccccc2)cc(Sc2ccccc2)c2cccnc12
inactive: SF-295 17.3 µM | UO-31 19.1 µM | CCRF-CEM 20 µM | RXF 393 11.8 µM | RPMI-8226 17.6 µM | HCC 2998 41.9 µM | U-251 29.2 µM | MOLT-4 19.5 µM | UACC-257 18.2 µM | HT-29 24.9 µM | SK-MEL-5 16.4 µM | SN12C 28.2 µM | SK-OV-3 > 100 µM | IGROV-1 46.1 µM

O=C1CCCC/C1=C1\C(=O)Nc2cc(F)ccc21
inactive: SF-295 > 100 µM | UO-31 > 100 µM | CCRF-CEM > 100 µM | RXF 393 > 100 µM | RPMI-8226 > 100 µM | HCC 2998 > 100 µM | U-251 > 100 µM | MOLT-4 > 100 µM | UACC-257 > 100 µM | HT-29 > 100 µM | HL-60 > 100 µM | HOP-92 > 100 µM | SK-MEL-5 > 100 µM | SN12C > 100 µM | NCI-H226 > 100 µM | SK-OV-3 > 100 µM | IGROV-1 > 100 µM

COc1ccc2c(c1)CC[C@@H]1C2CC[C@]2(C)C(=N\O)/C(=N/O)CC12 (stereo partly specified)
inactive: SF-295 10 µM | UO-31 12.8 µM | CCRF-CEM 9.68 µM | RPMI-8226 9.31 µM | HCC 2998 22.3 µM | U-251 15.4 µM | MOLT-4 4.79 µM | UACC-257 16.7 µM | HT-29 2.24 µM | HL-60 14.2 µM | HOP-92 16.1 µM | SK-MEL-5 12.7 µM | SN12C 17.7 µM | NCI-H226 11 µM | SK-OV-3 18.4 µM | IGROV-1 3.64 µM

[O-][n+]1c(-c2ccccc2)c2nc3ccccc3nc2c2ccccc21
inactive: SF-295 > 100 µM | UO-31 > 100 µM | CCRF-CEM > 100 µM | RXF 393 > 100 µM | RPMI-8226 > 100 µM | HCC 2998 > 100 µM | U-251 > 100 µM | MOLT-4 > 100 µM | UACC-257 > 100 µM | HT-29 > 100 µM | HOP-92 > 100 µM | SK-MEL-5 > 100 µM | SN12C > 100 µM | NCI-H226 > 100 µM | SK-OV-3 > 100 µM | IGROV-1 > 100 µM

Clc1ccccc1C1=NN(c2ccccc2)C2c3cc(Br)ccc3OCC12 (stereo unspecified)
inactive: SF-295 > 100 µM | UO-31 > 100 µM | CCRF-CEM > 100 µM | RXF 393 > 100 µM | RPMI-8226 67.9 µM | HCC 2998 > 100 µM | U-251 > 100 µM | MOLT-4 96.4 µM | UACC-257 > 100 µM | HT-29 > 100 µM | HL-60 > 100 µM | HOP-92 > 100 µM | SK-OV-3 > 100 µM | IGROV-1 > 100 µM

C/C(CC(=O)Nc1ccc(C)c(C)c1)=N\NC(N)=S
inactive: SF-295 > 100 µM | UO-31 > 100 µM | CCRF-CEM > 100 µM | RXF 393 > 100 µM | RPMI-8226 > 100 µM | HCC 2998 > 100 µM | U-251 > 100 µM | MOLT-4 > 100 µM | UACC-257 > 100 µM | HT-29 > 100 µM | HL-60 > 100 µM | HOP-92 > 100 µM | SK-MEL-5 > 100 µM | NCI-H226 > 100 µM | SK-OV-3 > 100 µM | IGROV-1 > 100 µM

Cc1ccc(S(=O)(=O)c2ccccc2[N+](=O)[O-])cc1
inactive: SF-295 > 100 µM | UO-31 81.8 µM | CCRF-CEM > 100 µM | RXF 393 37.3 µM | RPMI-8226 80.7 µM | HCC 2998 > 100 µM | U-251 > 100 µM | MOLT-4 66.7 µM | UACC-257 72.6 µM | HT-29 > 100 µM | HL-60 37.5 µM | SK-MEL-5 52.1 µM | NCI-H226 > 100 µM | SK-OV-3 > 100 µM | IGROV-1 > 100 µM

CCCN1CN(C(C(=O)N[C@@H]2C(=O)N3C2SC(C)(C)C3C(=O)O)c2ccc(O)cc2)CSC1=S (stereo partly specified)
inactive: SF-295 > 100 µM | UO-31 > 100 µM | CCRF-CEM > 100 µM | RPMI-8226 62.1 µM | U-251 > 100 µM | MOLT-4 > 100 µM | UACC-257 > 100 µM | HT-29 > 100 µM | HL-60 > 100 µM | HOP-92 > 100 µM | SK-MEL-5 > 100 µM | SN12C > 100 µM | SK-OV-3 > 100 µM | IGROV-1 > 100 µM

COc1ccc(CN2CC(C)(C)C2=O)c(OC)c1
inactive: SF-295 > 100 µM | UO-31 > 100 µM | CCRF-CEM > 100 µM | RXF 393 > 100 µM | RPMI-8226 > 100 µM | HCC 2998 > 100 µM | U-251 > 100 µM | MOLT-4 > 100 µM | UACC-257 > 100 µM | HT-29 > 100 µM | HL-60 > 100 µM | HOP-92 > 100 µM | SK-MEL-5 > 100 µM | SN12C > 100 µM | NCI-H226 > 100 µM | SK-OV-3 > 100 µM | IGROV-1 > 100 µM

O=C1OC(O)C(Oc2ccc(Cl)cc2)=C1Cl (stereo unspecified)
inactive: SF-295 > 100 µM | UO-31 > 100 µM | CCRF-CEM > 100 µM | RXF 393 > 100 µM | RPMI-8226 > 100 µM | HCC 2998 > 100 µM | U-251 > 100 µM | MOLT-4 > 100 µM | UACC-257 > 100 µM | HT-29 > 100 µM | HL-60 > 100 µM | HOP-92 > 100 µM | SN12C > 100 µM | NCI-H226 > 100 µM | SK-OV-3 > 100 µM | IGROV-1 > 100 µM

Cc1cc(N(CCC#N)CCC#N)ccc1/C=C(\NC(=O)/C=C/c1ccccc1)C(=O)N=[N+]=[N-]
inactive: SF-295 17.2 µM | UO-31 > 100 µM | CCRF-CEM > 100 µM | RXF 393 34.8 µM | RPMI-8226 > 100 µM | HCC 2998 > 100 µM | U-251 43.1 µM | MOLT-4 > 100 µM | UACC-257 > 100 µM | HT-29 > 100 µM | HL-60 > 100 µM | SK-MEL-5 > 100 µM | SN12C > 100 µM | NCI-H226 > 100 µM | SK-OV-3 55 µM | IGROV-1 > 100 µM

Fc1ccc2c(c1)SC1Oc3ccccc3-c3c1c-2nn3-c1ccccc1 (stereo unspecified)
inactive: SF-295 > 100 µM | UO-31 > 100 µM | CCRF-CEM > 100 µM | RXF 393 46.9 µM | RPMI-8226 > 100 µM | HCC 2998 > 100 µM | U-251 > 100 µM | MOLT-4 > 100 µM | UACC-257 > 100 µM | HT-29 > 100 µM | HL-60 > 100 µM | HOP-92 > 100 µM | SK-OV-3 > 100 µM | IGROV-1 > 100 µM

COC1OC(COC(C)=O)C(OC(C)=O)C(OC(C)=O)C1NC(=O)N(CCCl)N=O (stereo unspecified)
inactive: SF-295 39.1 µM and 24.2 µM | RXF 393 > 100 µM | HCC 2998 > 100 µM | UACC-257 > 100 µM | HT-29 > 100 µM | HL-60 30.8 µM and 16.1 µM | SK-MEL-5 > 100 µM | SN12C > 100 µM | NCI-H226 > 100 µM | SK-OV-3 > 100 µM | IGROV-1 > 100 µM
